Reference: a compilation of properties of binary mixtures (doi:10.1016/j.molliq.2020.112489)

Experiment: xn = mol fraction of the nth substance listed
Conditions: 101 kPa

CC[n+]1ccn(C)c1.O=C([O-])C(F)(F)C(F)(F)C(F)(F)C(F)(F)F + O
viscosity (298.15 K, x1 = 0.0264): 2.88 mPa·s
viscosity (298.15 K, x1 = 0.0311): 3.36 mPa·s
viscosity (298.15 K, x1 = 0.0364): 3.86 mPa·s
viscosity (298.15 K, x1 = 0.0428): 4.62 mPa·s
viscosity (298.15 K, x1 = 0.0496): 5.3 mPa·s
viscosity (298.15 K, x1 = 0.0581): 5.96 mPa·s
viscosity (298.15 K, x1 = 0.067): 6.84 mPa·s
viscosity (298.15 K, x1 = 0.0727): 7.23 mPa·s
viscosity (298.15 K, x1 = 0.0857): 8.38 mPa·s
viscosity (298.15 K, x1 = 0.133): 12.96 mPa·s
viscosity (298.15 K, x1 = 0.1458): 13.63 mPa·s
viscosity (298.15 K, x1 = 0.1625): 14.99 mPa·s
viscosity (298.15 K, x1 = 0.1788): 16.31 mPa·s
viscosity (298.15 K, x1 = 0.201): 17.94 mPa·s
viscosity (298.15 K, x1 = 0.262): 22.43 mPa·s
viscosity (298.15 K, x1 = 0.3007): 25.2 mPa·s
viscosity (298.15 K, x1 = 0.7012): 73.6 mPa·s
viscosity (298.15 K, x1 = 1): 107.5 mPa·s
viscosity (308.15 K, x1 = 0.0222): 2.016 mPa·s
viscosity (308.15 K, x1 = 0.0264): 2.221 mPa·s
viscosity (308.15 K, x1 = 0.0364): 2.91 mPa·s
viscosity (308.15 K, x1 = 0.0496): 3.92 mPa·s
viscosity (308.15 K, x1 = 0.0581): 4.37 mPa·s
viscosity (308.15 K, x1 = 0.067): 4.93 mPa·s
viscosity (308.15 K, x1 = 0.0727): 5.22 mPa·s
viscosity (308.15 K, x1 = 0.1009): 7.34 mPa·s
viscosity (308.15 K, x1 = 0.133): 9.04 mPa·s
viscosity (308.15 K, x1 = 0.1625): 10.35 mPa·s
viscosity (308.15 K, x1 = 0.1788): 11.24 mPa·s
viscosity (308.15 K, x1 = 0.2367): 14.29 mPa·s
viscosity (308.15 K, x1 = 0.4265): 24.3 mPa·s
viscosity (308.15 K, x1 = 0.7012): 46.9 mPa·s
viscosity (308.15 K, x1 = 1): 65.9 mPa·s
viscosity (318.15 K, x1 = 0.0264): 1.773 mPa·s
viscosity (318.15 K, x1 = 0.0311): 2.036 mPa·s
viscosity (318.15 K, x1 = 0.0364): 2.271 mPa·s
viscosity (318.15 K, x1 = 0.0428): 2.64 mPa·s
viscosity (318.15 K, x1 = 0.0496): 3.01 mPa·s
viscosity (318.15 K, x1 = 0.0581): 3.35 mPa·s
viscosity (318.15 K, x1 = 0.067): 3.7 mPa·s
viscosity (318.15 K, x1 = 0.0727): 3.93 mPa·s
viscosity (318.15 K, x1 = 0.0857): 4.5 mPa·s
viscosity (318.15 K, x1 = 0.1009): 5.4 mPa·s
viscosity (318.15 K, x1 = 0.133): 6.58 mPa·s
viscosity (318.15 K, x1 = 0.1788): 8.1 mPa·s
viscosity (318.15 K, x1 = 0.201): 8.85 mPa·s
viscosity (318.15 K, x1 = 0.2367): 10.22 mPa·s
viscosity (318.15 K, x1 = 0.262): 10.88 mPa·s
viscosity (318.15 K, x1 = 0.3007): 12.16 mPa·s
viscosity (318.15 K, x1 = 0.4265): 17.06 mPa·s
viscosity (318.15 K, x1 = 0.7012): 31.8 mPa·s
viscosity (318.15 K, x1 = 1): 43.1 mPa·s

Cn1cc[n+](CCO)c1.O=S(=O)([O-])C(F)(F)C(F)(F)C(F)(F)C(F)(F)F + O
electrical conductivity (298.15 K, x1 = 0.0178): 4.26 S/m
viscosity (298.15 K, x1 = 0.0178): 2.036 mPa·s
electrical conductivity (298.15 K, x1 = 0.0195): 4.4 S/m
viscosity (298.15 K, x1 = 0.0195): 2.133 mPa·s
electrical conductivity (298.15 K, x1 = 0.0212): 4.52 S/m
viscosity (298.15 K, x1 = 0.0212): 2.326 mPa·s
electrical conductivity (298.15 K, x1 = 0.0253): 4.75 S/m
viscosity (298.15 K, x1 = 0.0253): 2.66 mPa·s
electrical conductivity (298.15 K, x1 = 0.0297): 4.91 S/m
viscosity (298.15 K, x1 = 0.0297): 3.09 mPa·s
electrical conductivity (298.15 K, x1 = 0.0321): 4.97 S/m
viscosity (298.15 K, x1 = 0.0321): 3.3 mPa·s
electrical conductivity (298.15 K, x1 = 0.0348): 5 S/m
viscosity (298.15 K, x1 = 0.0348): 3.56 mPa·s
electrical conductivity (298.15 K, x1 = 0.0376): 5.1 S/m
viscosity (298.15 K, x1 = 0.0376): 3.7 mPa·s
electrical conductivity (298.15 K, x1 = 0.0405): 5.1 S/m
viscosity (298.15 K, x1 = 0.0405): 4.19 mPa·s
electrical conductivity (298.15 K, x1 = 0.0438): 5.2 S/m
viscosity (298.15 K, x1 = 0.0438): 4.43 mPa·s
electrical conductivity (298.15 K, x1 = 0.0474): 5.2 S/m
viscosity (298.15 K, x1 = 0.0474): 4.87 mPa·s
electrical conductivity (298.15 K, x1 = 0.0551): 5.2 S/m
viscosity (298.15 K, x1 = 0.0551): 5.75 mPa·s
electrical conductivity (298.15 K, x1 = 0.0644): 5.1 S/m
viscosity (298.15 K, x1 = 0.0644): 6.82 mPa·s
electrical conductivity (298.15 K, x1 = 0.07): 5.1 S/m
viscosity (298.15 K, x1 = 0.07): 7.66 mPa·s
electrical conductivity (298.15 K, x1 = 0.0756): 5 S/m
viscosity (298.15 K, x1 = 0.0756): 8.21 mPa·s
electrical conductivity (298.15 K, x1 = 0.0824): 4.88 S/m
viscosity (298.15 K, x1 = 0.0824): 9.23 mPa·s
electrical conductivity (298.15 K, x1 = 0.0899): 4.73 S/m
viscosity (298.15 K, x1 = 0.0899): 10.36 mPa·s
electrical conductivity (298.15 K, x1 = 0.1075): 4.31 S/m
viscosity (298.15 K, x1 = 0.1075): 12.91 mPa·s
electrical conductivity (298.15 K, x1 = 0.1178): 4.05 S/m
viscosity (298.15 K, x1 = 0.1178): 14.88 mPa·s
electrical conductivity (298.15 K, x1 = 0.1302): 3.73 S/m
viscosity (298.15 K, x1 = 0.1302): 16.91 mPa·s
electrical conductivity (298.15 K, x1 = 0.1441): 3.39 S/m
viscosity (298.15 K, x1 = 0.1441): 19.81 mPa·s
electrical conductivity (298.15 K, x1 = 0.1621): 2.98 S/m
viscosity (298.15 K, x1 = 0.1621): 23.25 mPa·s
electrical conductivity (298.15 K, x1 = 0.2068): 2.13 S/m
viscosity (298.15 K, x1 = 0.2068): 32.1 mPa·s
electrical conductivity (298.15 K, x1 = 0.2329): 1.74 S/m
viscosity (298.15 K, x1 = 0.2329): 38.8 mPa·s
electrical conductivity (298.15 K, x1 = 0.2751): 1.26 S/m
viscosity (298.15 K, x1 = 0.2751): 50.6 mPa·s
electrical conductivity (298.15 K, x1 = 0.3277): 0.85 S/m
viscosity (298.15 K, x1 = 0.3277): 63.8 mPa·s
electrical conductivity (298.15 K, x1 = 0.3954): 0.52 S/m
viscosity (298.15 K, x1 = 0.3954): 87.1 mPa·s
electrical conductivity (298.15 K, x1 = 0.5075): 0.241 S/m
viscosity (298.15 K, x1 = 0.5075): 133.7 mPa·s
electrical conductivity (298.15 K, x1 = 1): 0.033 S/m
viscosity (298.15 K, x1 = 1): 832 mPa·s
viscosity (308.15 K, x1 = 0.0178): 1.632 mPa·s
viscosity (308.15 K, x1 = 0.0195): 1.689 mPa·s
viscosity (308.15 K, x1 = 0.0212): 1.847 mPa·s
viscosity (308.15 K, x1 = 0.0232): 1.972 mPa·s
viscosity (308.15 K, x1 = 0.0253): 2.104 mPa·s
viscosity (308.15 K, x1 = 0.0274): 2.2 mPa·s
viscosity (308.15 K, x1 = 0.0297): 2.42 mPa·s
viscosity (308.15 K, x1 = 0.0321): 2.6 mPa·s
viscosity (308.15 K, x1 = 0.0348): 2.78 mPa·s
viscosity (308.15 K, x1 = 0.0376): 2.87 mPa·s
viscosity (308.15 K, x1 = 0.0405): 3.25 mPa·s
viscosity (308.15 K, x1 = 0.0474): 3.73 mPa·s
viscosity (308.15 K, x1 = 0.0511): 4.07 mPa·s
viscosity (308.15 K, x1 = 0.0551): 4.36 mPa·s
viscosity (308.15 K, x1 = 0.0596): 4.76 mPa·s
viscosity (308.15 K, x1 = 0.0824): 6.8 mPa·s
viscosity (308.15 K, x1 = 0.0983): 8.34 mPa·s
viscosity (308.15 K, x1 = 0.1075): 9.29 mPa·s
viscosity (308.15 K, x1 = 0.1178): 10.63 mPa·s
viscosity (308.15 K, x1 = 0.1621): 16.05 mPa·s
viscosity (308.15 K, x1 = 0.1816): 18.72 mPa·s
viscosity (308.15 K, x1 = 0.2329): 25.7 mPa·s
viscosity (308.15 K, x1 = 0.2751): 32.8 mPa·s
viscosity (308.15 K, x1 = 0.3277): 40.6 mPa·s
viscosity (308.15 K, x1 = 0.5075): 79.6 mPa·s
viscosity (308.15 K, x1 = 0.6777): 143.5 mPa·s
viscosity (308.15 K, x1 = 1): 411 mPa·s
viscosity (318.15 K, x1 = 0.0178): 1.344 mPa·s
viscosity (318.15 K, x1 = 0.0195): 1.381 mPa·s
viscosity (318.15 K, x1 = 0.0212): 1.517 mPa·s
viscosity (318.15 K, x1 = 0.0253): 1.719 mPa·s
viscosity (318.15 K, x1 = 0.0274): 1.77 mPa·s
viscosity (318.15 K, x1 = 0.0297): 1.975 mPa·s
viscosity (318.15 K, x1 = 0.0348): 2.227 mPa·s
viscosity (318.15 K, x1 = 0.0376): 2.274 mPa·s
viscosity (318.15 K, x1 = 0.0405): 2.58 mPa·s
viscosity (318.15 K, x1 = 0.0474): 2.95 mPa·s
viscosity (318.15 K, x1 = 0.0511): 3.2 mPa·s
viscosity (318.15 K, x1 = 0.0551): 3.42 mPa·s
viscosity (318.15 K, x1 = 0.0644): 3.98 mPa·s
viscosity (318.15 K, x1 = 0.07): 4.42 mPa·s
viscosity (318.15 K, x1 = 0.0756): 4.67 mPa·s
viscosity (318.15 K, x1 = 0.0824): 5.16 mPa·s
viscosity (318.15 K, x1 = 0.0899): 5.75 mPa·s
viscosity (318.15 K, x1 = 0.1075): 6.93 mPa·s
viscosity (318.15 K, x1 = 0.1178): 7.86 mPa·s
viscosity (318.15 K, x1 = 0.1441): 10.06 mPa·s
viscosity (318.15 K, x1 = 0.1621): 11.56 mPa·s
viscosity (318.15 K, x1 = 0.1816): 13.38 mPa·s
viscosity (318.15 K, x1 = 0.2068): 15.23 mPa·s
viscosity (318.15 K, x1 = 0.2751): 22.44 mPa·s
viscosity (318.15 K, x1 = 0.3277): 27.4 mPa·s
viscosity (318.15 K, x1 = 0.3954): 35.4 mPa·s
viscosity (318.15 K, x1 = 0.5075): 50.5 mPa·s
viscosity (318.15 K, x1 = 0.6777): 86.8 mPa·s
viscosity (318.15 K, x1 = 1): 224 mPa·s
